In US11447500B2, “Thienopyridine derivatives and pharmaceutical composition comprising same” (WELLMARKER BIO CO., LTD., priority 2018, dated 2022):
Counter-ions that a name gives are not always drawn.

Columns and labels:
[1] = tested on: RON-mutated (Δ160) HT-29 colon cancer cell line; assay: Cell killing efficacy, trypan blue exclusion assay, HT-29; format: cell-based; details: HT29 cell, 48 hours
Method: (§1) Two colon cancer cell lines, RON-activated KM12C (80015, KCLB, MEM+10% FBS) and RON-mutated (Δ160) HT-29 (30038, KCLB, RPMI+10% FBS) were prepared in 6-well plates at 5×10^4 cells/well, respectively. After 24 hours, while freshly changing the medium, the sample compounds were added to the wells at a concentration of 1 μM or 5 μM and the plates were allowed to stand for 48 hours.
(§2) As the sample compounds, the compounds synthesized in the examples of the present invention and the compounds of the comparative examples were used.
(§3) After 48 hours, the cell suspensions were collected and centrifuged (1,500 rpm, 4 min.) to obtain the cells, and live cells and dead cells were quantitated (n=2) through a trypan blue (15250-061, Gibco) exclusion assay. The statistical analysis was performed using Excel™ T-test from Microsoft.
(§4) The cell death rates of the compounds of Examples and Comparative Examples were respectively measured and the results are shown in Table 4 as relative ratios to Comparative Example 1.

[2] = tested on: RON-activated KM12C colon cancer cell line; assay: Cell killing efficacy, trypan blue exclusion assay, KM12C; format: cell-based; details: 48 hours
Method: as §1, §2, §3, §4

[3] = biological target: T1, RON kinase (Homo sapiens, UniProt Q04912); assay: RON kinase enzyme inhibitory activity, FRET (TR-FRET) technique; format: biochemical; details: 60 min reaction
T1 construct: purchased Carna Bioscience
T1 sequence (Q04912 25-1400): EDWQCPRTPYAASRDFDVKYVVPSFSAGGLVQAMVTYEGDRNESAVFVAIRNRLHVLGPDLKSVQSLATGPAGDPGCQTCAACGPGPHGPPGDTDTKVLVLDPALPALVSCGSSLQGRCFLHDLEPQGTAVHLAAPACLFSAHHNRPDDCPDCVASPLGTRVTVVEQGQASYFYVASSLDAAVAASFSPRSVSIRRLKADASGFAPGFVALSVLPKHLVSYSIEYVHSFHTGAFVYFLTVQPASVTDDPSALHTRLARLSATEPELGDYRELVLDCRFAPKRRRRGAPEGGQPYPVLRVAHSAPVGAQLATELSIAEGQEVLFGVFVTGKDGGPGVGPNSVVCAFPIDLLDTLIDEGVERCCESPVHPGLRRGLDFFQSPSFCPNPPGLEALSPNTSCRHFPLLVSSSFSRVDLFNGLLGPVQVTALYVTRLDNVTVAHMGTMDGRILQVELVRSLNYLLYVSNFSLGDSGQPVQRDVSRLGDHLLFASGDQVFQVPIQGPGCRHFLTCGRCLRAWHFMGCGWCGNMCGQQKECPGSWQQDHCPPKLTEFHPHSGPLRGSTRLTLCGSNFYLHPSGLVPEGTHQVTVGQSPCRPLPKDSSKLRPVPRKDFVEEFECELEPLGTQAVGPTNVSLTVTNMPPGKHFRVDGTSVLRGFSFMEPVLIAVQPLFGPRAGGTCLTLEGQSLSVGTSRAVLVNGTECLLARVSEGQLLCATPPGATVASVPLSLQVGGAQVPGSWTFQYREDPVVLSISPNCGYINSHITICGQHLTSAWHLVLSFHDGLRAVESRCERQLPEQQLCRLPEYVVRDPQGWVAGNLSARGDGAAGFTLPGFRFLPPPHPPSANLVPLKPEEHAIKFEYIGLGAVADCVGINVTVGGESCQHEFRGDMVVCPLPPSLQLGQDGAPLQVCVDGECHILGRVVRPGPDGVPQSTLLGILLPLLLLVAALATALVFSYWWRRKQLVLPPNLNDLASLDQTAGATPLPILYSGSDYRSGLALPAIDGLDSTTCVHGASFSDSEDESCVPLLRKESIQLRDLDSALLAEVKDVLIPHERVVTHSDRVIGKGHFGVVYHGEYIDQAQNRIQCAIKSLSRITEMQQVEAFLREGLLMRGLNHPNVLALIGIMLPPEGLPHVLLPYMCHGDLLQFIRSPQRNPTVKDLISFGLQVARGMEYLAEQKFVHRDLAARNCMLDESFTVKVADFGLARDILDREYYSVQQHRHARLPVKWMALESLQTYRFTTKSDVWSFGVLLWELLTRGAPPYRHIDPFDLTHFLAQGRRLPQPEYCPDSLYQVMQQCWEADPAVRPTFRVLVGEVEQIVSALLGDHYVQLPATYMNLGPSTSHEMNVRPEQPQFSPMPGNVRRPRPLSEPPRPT
Method: The enzyme inhibitory activity (IC50) of the thienopyridine derivative was measured using FRET (fluorescence resonance energy transfer) technique. RON kinase (Carna Bioscience) was diluted with a kinase assay buffer (50 mM HEPES pH 7.5, 1 mM EGTA, 10 mM MgCl2, 2 mM DTT, and 0.01% Tween-20) to a concentration of 2× (0.4 nM) the final reaction concentration and the dilution was added to a 384-well plate at 5 μL/well. As sample compounds, the compounds synthesized in the examples of the present invention and the compounds of the comparative examples were used. The sample compounds were respectively dissolved in 100% DMSO to obtain 1 mM stock solutions, which were then subjected to eight 10-fold serial dilutions. The sample compounds were diluted with the kinase assay buffer to a concentration of 4× the final reaction concentration, and the dilutions were added to the 384-well plate at 2.5 μL/well. The plate was incubated at room temperature for 15 minutes. Next, 0.25 M ATP solution (Sigma Aldrich) was diluted with the kinase reaction buffer to a concentration of 4× (60 μM) the final reaction concentration, and a tyrosine peptide substrate (Perkin-Elmer) was diluted therein to a concentration of 4× (400 nM) the final reaction concentration. The dilution was added to the 384-well plate at 2.5 μL/well. Then, the 384-well plate was incubated at room temperature and the reaction was allowed to proceed for 60 minutes. After 60 minutes, EDTA (Sigma Aldrich) was diluted with TR-FRET detection buffer (Perkin-Elmer) to a concentration of 4× (40 mM) the final reaction concentration. A europium-labeled anti-phosphotyrosine antibody (Perkin-Elmer) was diluted in the above EDTA dilution to a concentration of 4× (8 nM) the final reaction concentration to prepare a stop solution of the RON kinase reaction. The stop solution was added to the 384-well plate at 10 μL/well to terminate the reaction, and the plate was incubated at room temperature for 60 minutes. Thereafter, the plate was read on Victor X5 plate reader (Perkin-Elmer). At this time, the excitation wavelength was 340 nm and the emission wavelengths were 620 nm and 665 nm. The IC50 values of the sample compounds were determined using GraphPad Prism™ 5 by expressing the emission energy at 665 nm as a function of the sample compound concentration.

| SMILES | Cell death rate (Relative to Comp. Ex. 1) ([1]; 1 μM) | Cell death rate (Relative to Comp. Ex. 1) ([1]; 5 μM) | Cell death rate (Relative to Comp. Ex. 1) ([2]; 1 μM) | Cell death rate (Relative to Comp. Ex. 1) ([2]; 5 μM) | IC50 [3] |
| --- | --- | --- | --- | --- | --- |
| COCCNCc1ccc(-c2cc3nccc(Oc4ccc(NC(=O)c5c(C)cnn(-c6ccccc6)c5=O)cc4F)c3s2)nc1.Cl [Example 18, N-(3-fluoro-4-{[2-(5-{[(2-methoxyethyl)amino]methyl}pyridin-2-yl)thieno[3,2-b]pyridin-7-yl]oxy}phenyl)-5-methyl-3-oxo-2-phenyl-2,3-dihydropyridazine-4-carboxamide Hydrochloride] | x 1.33 | x 1.37 | x 0.56 | x 1.09 | 0.77 nM |
| COc1ccc2c(Oc3ccc(NC(=O)c4c(C)n(CC(C)(C)O)n(-c5ccccc5)c4=O)cc3F)ccnc2c1 [Comp. Ex. 2, N-(3-fluoro-4-(7-methoxyquinolin-4-yloxy)phenyl)-1-(2-hydroxy-2-methylpropyl)-5-methyl-3-oxo-2-phenyl-2,3-dihydro-1H-pyrazole-4-carboxamide, reference compound] | x 0.59 | x 0.32 | x 0.38 | x 0.31 | 2.89 nM |
| CCOc1ccn(-c2ccc(F)cc2)c(=O)c1C(=O)Nc1ccc(Oc2ccnc3cc(-c4ccc(CN(C)CCOC)cn4)sc23)c(F)c1 [Example 30, 4-ethoxy-N-(3-fluoro-4-{[2-(5-{[(2-methoxyethyl)(methyl)amino]methyl}pyridin-2-yl)thieno[3,2-b]pyridin-7-yl]oxy}phenyl)-1-(4-fluorophenyl)-2-oxo-1,2-dihydropyridine-3-carboxamide Hydrochloride] | x 1.34 | x 1.07 | x 2.48 | x 2.06 | 0.88 nM |
| COCCNCc1ccc(-c2cc3nccc(Oc4ccc(NC(=O)c5c(OC)ccn(-c6ccc(F)cc6)c5=O)cc4Cl)c3s2)nc1.Cl [Example 9, N-(3-chloro-4-{[2-(5-{[(2-methoxyethyl)amino]methyl}pyridin-2-yl)thieno[3,2-b]pyridin-7-yl]oxy}phenyl)-1-(4-fluorophenyl)-4-methoxy-2-oxo-1,2-dihydropyridine-3-carboxamide Hydrochloride] | x 4.08 | x 3.53 | x 2.26 | x 2.87 | 0.08 nM |
| COCCNCc1ccc(-c2cc3nccc(Oc4ccc(NC(=O)c5c(OC)ccn(-c6ccc(F)cc6)c5=O)cc4)c3s2)nc1.Cl [Example 11, 1-(4-fluorophenyl)-4-methoxy-N-(4-{[2-(5-{[(2-methoxyethyl)amino]methyl}pyridin-2-yl)thieno[3,2-b]pyridin-7-yl)oxy)phenyl)-2-oxo-1,2-dihydropyridine-3-carboxamide Hydrochloride] | x 1.16 | x 0.94 | x 0.99 | x 1.65 | 0.26 nM |
| COCCNCc1ccc(-c2cc3nccc(Oc4ccc(NC(=O)c5cccn(-c6ccc(F)cc6)c5=O)cc4F)c3s2)nc1.Cl [Example 4, N-(3-fluoro-4-{[2-(5-{[(2-methoxyethyl)amino]methyl}pyridin-2-yl)thieno[3,2-b]pyridin-7-yl]oxy}phenyl)-1-(4-fluorophenyl)-2-oxo-1,2-dihydropyridine-3-carboxamide Hydrochloride] | x 3.51 | x 3.63 | x 0.59 | x 0.80 | 0.68 nM |
| COCCNCc1ccc(-c2cc3nccc(Oc4ccc(NC(=O)c5c(OC)ccn(-c6ccccc6)c5=O)cc4F)c3s2)nc1.Cl [Example 3, N-(3-fluoro-4-{[2-(5-{[(2-methoxyethyl)amino]methyl}pyridin-2-yl)thieno[3,2-b]pyridin-7-yl]oxy}phenyl)-4-methoxy-2-oxo-1-phenyl-1,2-dihydropyridine-3-carboxamide Hydrochloride] | x 1.80 | x 2.22 | x 0.66 | x 1.26 | 0.42 nM |
| CCOc1ccn(-c2ccc(F)cc2)c(=O)c1C(=O)Nc1ccc(Oc2ccnc3cc(-c4ccc(CNCCOC)cn4)sc23)c(F)c1.Cl [Example 7, 4-ethoxy-N-(3-fluoro-4-{[2-(5-{[(2-methoxyethyl)amino]methyl}pyridin-2-yl)thieno[3,2-b]pyridin-7-yl]oxy}phenyl)-1-(4-fluorophenyl)-2-oxo-1,2-dihydropyridine-3-carboxamide Hydrochloride] | x 2.97 | x 2.90 | x 2.38 | x 1.32 | 0.28 nM |
| CCOc1ccn(-c2ccc(Cl)cc2)c(=O)c1C(=O)Nc1ccc(Oc2ccnc3cc(-c4ccc(CNCCOC)cn4)sc23)c(F)c1.Cl [Example 8, 1-(4-chlorophenyl)-4-ethoxy-N-(3-fluoro-4-{[2-(5-{[(2-methoxyethyl)amino]methyl}pyridin-2-yl)thieno[3,2-b]pyridin-7-yl]oxy}phenyl)-2-oxo-1,2-dihydropyridine-3-carboxamide Hydrochloride] | x 2.24 | x 2.52 | x 0.92 | x 1.19 | 0.01 nM |
| COCCNCc1ccc(-c2cc3nccc(Oc4ccc(NC(=O)c5c(OC)ccn(-c6ccc(F)cc6)c5=O)cc4F)c3s2)nc1.Cl [Example 2, N-(3-fluoro-4-{[2-(5-{[(2-methoxyethyl)amino]methyl}pyridin-2-yl)thieno[3,2-b]pyridin-7-yl]oxy}phenyl)-1-(4-fluorophenyl)-4-methoxy-2-oxo-1,2-dihydropyridine-3-carboxamide Hydrochloride] | x 0.62 | x 1.15 | x 1.33 | x 0.74 | 0.1 nM |
| CCOc1ccn(-c2ccc(F)cc2)c(=O)c1C(=O)Nc1ccc(Oc2ccnc3cc(-c4ccc(CN5CCOCC5)cn4)sc23)c(Cl)c1 [Example 36, N-[3-chloro-4-({2-[5-(morpholinomethyl)pyridin-2-yl]thieno[3,2-b]pyridin-7-yl}oxy)phenyl]-4-ethoxy-1-(4-fluorophenyl)-2-oxo-1,2-dihydropyridine-3-carboxamide Hydrochloride] | – | – | – | – | 2.28 nM |
| CCOc1ccn(-c2cccc(OC)c2)c(=O)c1C(=O)Nc1ccc(Oc2ccnc3cc(-c4ccc(CNCCOC)cn4)sc23)c(F)c1 [Example 16, 4-ethoxy-N-(3-fluoro-4-{[2-(5-{[(2-methoxyethyl)amino]methyl}pyridin-2-yl)thieno[3,2-b]pyridin-7-yl]oxy}phenyl)-1-(3-methoxyphenyl)-2-oxo-1,2-dihydropyridine-3-carboxamide Hydrochloride] | – | – | – | – | 3.43 nM |
